Source: patent US20190381108A1, “COMPOSITION FOR IMPROVING BONE HEALTH, INCLUDING FUNCTIONAL FERMENTED MATERIAL USING OYSTERS” (Jeju National University Industry-Academic Cooperation …, priority 2018, published 2019)

Tested on: RAW 264.7 cells
Assay: Production of ROS in cells (DCF-DA, flow cytometry)
Type: cell-based, murine
Conditions: RANKL 100 ng/mL; DCF-DA staining
Experimental: After RAW 264.7 cells were aliquoted at 5×10^4 cells/well into 6-well plates and stabilized for 24 hours, RAW 264.7 cells were induced into differentiation by RANKL (100 ng/mL), treated with FO at each concentration, cultured for 5 days, and then stained at 37° C. for 30 minutes by treatment with 10 μM DCF-DA, and then measured using flow cytometry.
It is known that oxidative stress in cells occurs during the differentiation of osteoclasts induced by RANKL. Therefore, the effects of FO on the production of ROS induced by RANKL was confirmed through DCF-DA staining.

CC(=O)N[C@@H](CS)C(=O)O [NAC]
ROS increased in the osteoclasts treated with RANKL: also similarly observed
